Assays:
[1] = Caspase-3 activation activity tested in DLD1 colon cells done for 24 or 48 hr at 37 degree C
[2] = Caspase-3 activation activity tested in T47D breast cells done for 24 or 48 hr at 37 degree C
[3] = Caspase-3 activation activity tested in H1299 lung cancer cells done for 24 or 48 hr at 37 degree C
[4] = Caspase-3 activation activity tested in […] cancer cells done for 24 or 48 hr at 37 degree C
[5] = Caspase-3 activation activity tested in HT-29 cancer cells done for 24 or 48 hr at 37 degree C
[6] = Caspase-3 activation activity tested in LnCap cancer cells done for 24 or 48 hr at 37 degree C
[7] = Caspase-3 activation activity tested in ZR-75-1 cancer cells done for 24 or 48 hr at 37 degree C
[8] = Caspase activation activity of compound in cell line H-1299 nonsmall-cell lung cancer cells

## Clc1ccc(-c2noc(-c3sccc3Cl)n2)cn1 [2-Chloro-5-[5-(3-chloro-thiophen-2-yl)-[1,2,4]oxadiazol-3-yl]-pyridine]
[1]
  EC50: 290 nM
[2]
  EC50: 750 nM
[3]
  EC50: > 10000 nM

## Clc1ccc(-c2noc(-c3occc3Br)n2)nc1 [2-[5-(3-Bromo-furan-2-yl)-[1,2,4]oxadiazol-3-yl]-5-chloro-pyridine]
[1]
  EC50: 840 nM
[2]
  EC50: 1610 nM
[3]
  EC50: > 10000 nM

## FC(F)(F)c1ccc(-c2noc(-c3occc3Br)n2)nc1 [2-[5-(3-Bromo-furan-2-yl)-[1,2,4]oxadiazol-3-yl]-5-trifluoromethyl-pyridine]
[1]
  EC50: 700 nM
[2]
  EC50: 610 nM
[3]
  EC50: > 10000 nM

## FC(F)(F)c1ccc(-c2noc(-c3sccc3Cl)n2)nc1 [2-[5-(3-Chloro-thiophen-2-yl)-[1,2,4]oxadiazol-3-yl]-5-trifluoromethyl-pyridine]
[1]
  EC50: 410 nM
[2]
  EC50: 1440 nM
[3]
  EC50: > 10000 nM

## Clc1ccc(-c2noc(-c3sccc3Cl)n2)cc1 [3-(4-Chloro-phenyl)-5-(3-chloro-thiophen-2-yl)-[1,2,4]oxadiazole]
[1]
  EC50: 790 nM
[2]
  EC50: 1770 nM
[3]
  EC50: > 40000 nM

## CCOc1ccsc1-c1nc(-c2ccc(Cl)cc2)no1 [3-(4-Chloro-phenyl)-5-(3-ethoxy-thiophen-2-yl)-[1,2,4]oxadiazole]
[1]
  EC50: > 10000 nM
[2]
  EC50: > 40000 nM
[3]
  EC50: > 40000 nM

## Clc1ccc(-c2noc(-c3ccco3)n2)cc1 [3-(4-Chloro-phenyl)-5-furan-2-yl-[1,2,4]oxadiazole]
[1]
  EC50: > 10000 nM
[2]
  EC50: 17400 nM
[3]
  EC50: > 40000 nM

## Clc1ccc(-c2noc(-c3cccs3)n2)cc1 [3-(4-Chloro-phenyl)-5-thiophen-2-yl-[1,2,4]oxadiazole]
[1]
  EC50: > 10000 nM
[2]
  EC50: > 40000 nM
[3]
  EC50: > 40000 nM

## Cc1cc(Cl)ccc1-c1noc(-c2sccc2Cl)n1 [3-(4-chloro-2-methylphenyl)-5-(3-chlorothiophen-2-yl)-1,2,4-oxadiazole]
[1]
  EC50: 380 nM
[2]
  EC50: 910 nM
[3]
  EC50: > 40000 nM

## Clc1ccc(-c2noc(-c3ccccc3Cl)n2)cc1 [5-(2-Chloro-phenyl)-3-(4-chloro-phenyl)-[1,2,4]oxadiazole]
[2]
  EC50: > 40000 nM
[3]
  EC50: > 40000 nM

## FC(F)(F)c1ccc(-c2noc(-c3ccccc3Cl)n2)cc1 [5-(2-Chloro-phenyl)-3-(4-trifluoromethyl-phenyl)-[1,2,4]oxadiazole]
[2]
  EC50: > 40000 nM
[3]
  EC50: > 40000 nM

## Clc1ccc(-c2noc(-c3occc3Br)n2)cc1 [5-(3-Bromo-furan-2-yl)-3-(4-chloro-phenyl)-[1,2,4]oxadiazole]
[1]
  EC50: 830 nM
[2]
  EC50: 1080 nM
[3]
  EC50: > 10000 nM

## FC(F)(F)c1ccc(-c2noc(-c3occc3Br)n2)cc1 [5-(3-Bromo-furan-2-yl)-3-(4-trifluoromethyl-phenyl)-[1,2,4]oxadiazole]
[1]
  EC50: 1070 nM
[2]
  EC50: 2010 nM
[3]
  EC50: > 10000 nM

## Clc1ccc(-c2noc(-c3sccc3Br)n2)cc1 [5-(3-Bromo-thiophen-2-yl)-3-(4-chloro-phenyl)-[1,2,4]oxadiazole]
[1]
  EC50: 1320 nM
[2]
  EC50: 3320 nM
[3]
  EC50: > 10000 nM

## Cc1csc(-c2nc(-c3ccc(Cl)cc3)no2)c1Cl [5-(3-Chloro-4-methyl-thiophen-2-yl)-3-(4-chloro-phenyl)-[1,2,4]oxadiazole]
[1]
  EC50: > 10000 nM
[2]
  EC50: > 40000 nM
[3]
  EC50: > 40000 nM

## Clc1ccc(-c2noc(-c3occc3Cl)n2)cc1 [5-(3-Chloro-furan-2-yl)-3-(4-chloro-phenyl)-[1,2,4]oxadiazole]
[1]
  EC50: 1490 nM
[2]
  EC50: 1740 nM
[3]
  EC50: > 10000 nM

## O=[N+]([O-])c1ccc(-c2noc(-c3occc3Cl)n2)cc1 [5-(3-Chloro-furan-2-yl)-3-(4-nitro-phenyl)-[1,2,4]oxadiazole]
[2]
  EC50: 1970 nM
[3]
  EC50: > 40000 nM

## FC(F)(F)c1ccc(-c2noc(-c3occc3Cl)n2)cc1 [5-(3-Chloro-furan-2-yl)-3-(4-trifluoromethyl-phenyl)-[1,2,4]oxadiazole]
[1]
  EC50: 480 nM
[2]
  EC50: 520 nM
[3]
  EC50: > 10000 nM

## FC(F)(F)c1cccc(-c2noc(-c3sccc3Cl)n2)c1 [5-(3-Chloro-thiophen-2-yl)-3-(3-trifluoromethyl-phenyl)-[1,2,4]oxadiazole]
[1]
  EC50: 280 nM
[2]
  EC50: 900 nM
[3]
  EC50: > 10000 nM

## FC(F)(F)c1cc(-c2noc(-c3sccc3Cl)n2)ccc1Cl [5-(3-Chloro-thiophen-2-yl)-3-(4-chloro-3-trifluoromethyl-phenyl)-[1,2,4]oxadiazole]
[1]
  EC50: 560 nM
[2]
  EC50: 930 nM
[3]
  EC50: > 10000 nM

## COc1ccc(-c2noc(-c3sccc3Cl)n2)cc1 [5-(3-Chloro-thiophen-2-yl)-3-(4-methoxy-phenyl)-[1,2,4]oxadiazole]
[1]
  EC50: 1450 nM
[2]
  EC50: 4170 nM
[3]
  EC50: > 10000 nM

## FC(F)(F)Oc1ccc(-c2noc(-c3sccc3Cl)n2)cc1 [5-(3-Chloro-thiophen-2-yl)-3-(4-trifluoromethoxy-phenyl)-[1,2,4]oxadiazole]
[1]
  EC50: 430 nM
[2]
  EC50: 890 nM
[3]
  EC50: > 10000 nM

## FC(F)(F)c1ccc(-c2noc(-c3sccc3Cl)n2)cc1 [5-(3-Chloro-thiophen-2-yl)-3-(4-trifluoromethyl-phenyl)-[1,2,4]oxadiazole]
[1]
  EC50: 440 nM
[4]
  EC50: > 10000 nM
[2]
  EC50: 1210 nM
[5]
  EC50: 760 nM
[6]
  EC50: > 10000 nM
[7]
  EC50: 3340 nM
[3]
  EC50: > 40000 nM

## Cc1ccc(-c2noc(-c3sccc3Cl)n2)cc1 [5-(3-Chloro-thiophen-2-yl)-3-p-tolyl-[1,2,4]oxadiazole]
[1]
  EC50: 1420 nM
[2]
  EC50: 3660 nM
[3]
  EC50: > 10000 nM

## Clc1ccsc1-c1nc(-c2ccccc2)no1 [5-(3-Chloro-thiophen-2-yl)-3-phenyl-[1,2,4]oxadiazole]
[1]
  EC50: 760 nM
[2]
  EC50: 2820 nM
[3]
  EC50: > 40000 nM

## Clc1ccc(-c2noc(-c3sccc3Cl)n2)cc1Cl [5-(3-chlorothiophen-2-yl)-3-(3,4-dichlorophenyl)-1,2,4-oxadiazole]
[1]
  EC50: 370 nM
[2]
  EC50: 1410 nM
[3]
  EC50: > 10000 nM

## Clc1ccc(-c2noc(-c3occc3Cl)n2)nc1 [5-Chloro-2-[5-(3-chloro-furan-2-yl)-[1,2,4]oxadiazol-3-yl]-pyridine]
[8]
  EC50: > 10000 nM
[1]
  EC50: 580 nM
[2]
  EC50: 1110 nM

## Clc1ccc(-c2noc(-c3sccc3Cl)n2)nc1 [5-Chloro-2-[5-(3-chloro-thiophen-2-yl)-[1,2,4]oxadiazol-3-yl]-pyridine]
[1]
  EC50: 390 nM
[2]
  EC50: 1590 nM
[3]
  EC50: > 40000 nM

## Cc1ccc(-c2noc(-c3cccs3)n2)cc1 [5-Thiophen-2-yl-3-p-tolyl-[1,2,4]oxadiazole]
[1]
  EC50: > 10000 nM
[2]
  EC50: > 40000 nM
[3]
  EC50: > 40000 nM

## FC(F)(F)c1ccc(-c2noc(-c3sccc3Cl)n2)cn1 [5-[5-(3-Chloro-thiophen-2-yl)-[1,2,4]oxadiazol-3-yl]-2-trifluoromethyl-pyridine]
[1]
  EC50: 240 nM
[2]
  EC50: 920 nM
[3]
  EC50: > 10000 nM

## CN(C)c1ccc(-c2noc(-c3sccc3Cl)n2)cc1 [{4-[5-(3-Chloro-thiophen-2-yl)-[1,2,4]oxadiazol-3-yl]-phenyl}-dimethyl-amine]
[1]
  EC50: > 10000 nM
[2]
  EC50: > 40000 nM
[3]
  EC50: > 40000 nM

Source: BindingDB's records for doi:10.1021/jm050292k (Maxim Pharmaceuticals, 2005)
